The text below walks through data of US20140249295A1, “LIGHT-INDUCIBLE SYSTEM FOR REGULATING PROTEIN STABILITY” (The Board of Trustees Of The Leland Stanford Junior …, priority 2013, published 2014).

Where a SMILES comes first, the peptide text is derived from it. The star is where a group is joined. Cbz = O=C(OCc1ccccc1)*

One experiment relates to 3T3 cells. The conditions noted are these: cited from earlier work.
The subject of a further experiment is NIH3T3 cells. The experiment is described as follows: Flow cytometry / immunoblot of NIH3T3 cells stably expressing YFP-LOV2 domain fusions, dark vs blue light. The format is cell-based. Conditions: 10 μM MG132, blue light 2 hours, FACS analysis. On the procedure: Genes encoding the proteins tested as fusions to the BLID domain were cloned by standard techniques in the retroviral pBMN vector encoding an iHcRed-t or iBlasticidin. The ΦNX ecotropic packaging cell line was cultured in DMEM supplemented with 10% heat-inactivated fetal bovine serum, 2 mM glutamine, 100 U/mL penicillin and 100 μg/mL streptomycin. The NIH3T3 cell line was cultured in DMEM supplemented with 10% heat-inactivated donor bovine serum, 2 mM glutamine, 100 U/mL penicillin and 100 μg/mL streptomycin. The ΦNX cells were transfected using standard Lipofectamine 2000 protocols. Viral supernatants were harvested 48 h posttransfection and filtered through a 0.45 μm nylon syringe filter. NIH3T3 cells were incubated with the retroviral supernatants supplemented with 4 μg/mL polybrene for 4-6 h at 37° C. Cells were cultured in growth media for 24 to 36 h to allow for viral integration, then assayed as described.
Twenty-four hours prior to analysis, transduced NIH3T3 cells were plated at 1×10^5 cells per well of a 12-well plate and treated with vehicle or blue light for indicated time points prior to analysis. […] Samples were analyzed at the Stanford Shared FACS Facility with 10,000 events represented.
For immunoblotting, NIH3T3 cells were washed in PBS and lysed on ice in MIPP buffer containing protease inhibitors. Protein concentration was measured by Bradford assay. […]
Background: In flow cytometry, cells or beads pass a laser one at a time.

RRRG: the “fluorescence of YFP with C-terminal degron” value in the experiment with 3T3 cells is “no fluorescence is observed”.
For the compound `CC(C)C[C@@H](C=O)NC(=O)[C@H](CC(C)C)NC(=O)[C@H](CC(C)C)NC(=O)OCc1ccccc1` [MG132] (Cbz-Leu-Leu-Leu-aldehyde), the “effect on light-dependent decrease in fluorescence of YFP-LOV24” value in the experiment on NIH3T3 cells is “prevents the light-dependent decrease in fluorescence”.
